# Test results as given in patent US6413245B1, “Sub-tenon drug delivery” (Alcon Universal Ltd., priority 1999, dated 2002).
# Assay: Retinal concentration of angiostatic steroid after sub-Tenon drug depot in rabbit eyes
# Assay type: in vivo
# Conditions: drug depot on outer surface of sclera, slightly posterior of the equator, measured the day after the injection, New Zealand White rabbits
# Text: Sclera 16 and Tenon's capsule 34 define the exterior surface of the globe of eye 10. For treatment of ARMD, CNV, retinopathies, retinitis, uveitis, cystoid macular edema (CME), glaucoma, and other diseases or conditions of posterior segment 26, it is preferable to dispose a depot 38 of a specific quantity of an ophthalmically acceptable pharmaceutically active agent directly on the outer surface of sclera 16 and below Tenon's capsule 34. In addition, in cases of ARMD and CME it is most preferable to dispose depot 38 directly on the outer surface of sclera 16, below Tenon's capsule 34, and generally above macula 30. In a study using New Zealand White rabbits, a drug depot of 4,9(11)-Pregnadien-17α,21-diol-3,20-dione-21-acetate, an angiostatic steroid available from Steraloids, Inc. of Wilton, New Hampshire, was disposed directly on the outer surface of the sclera, below the Tenon's capsule, and slightly posterior of the equator of the rabbit eyes. […] Given the fact that the Tenon's capsule of a New Zealand White rabbit is very thin, these beneficial results are highly unexpected. It is important to note that Tenon's capsule 34 of human eye 10 is also very thin. […]
structure (smiles),measurement,value
"CC(=O)OCC(=O)[C@@]1(O)CC[C@H]2[C@@H]3CCC4=CC(=O)CC[C@]4(C)C3=CC[C@@]21C [4,9(11)-Pregnadien-17α,21-diol-3,20-dione-21-acetate]","concentration of the angiostatic steroid, averaged over the entire retina, relative to a depot located below the conjunctiva but above the Tenon's capsule",about ten times greater
